# Measured values from PubChem BioAssay AID330 (DTP/NCI, 2004).
# Values joined by “and” are separate entries in the source; they are usually repeats but may differ in a detail not shown here. Identical values can stand only once. Toxic doses and inconclusive results are not listed.
# System: P388 leukemia ip, CD2F1 mice, survival T/C
# Test: NCI In Vivo Anticancer Drug Screen. Data for tumor model P388 Leukemia (intraperitoneal) in CD2F1 (CDF1) mice
# Details: endpoint: median survival time, higher = longer survival
# Procedure, shortened: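 Mice carrying the transplanted tumor received test compound or vehicle. Survival was recorded in each group, and the value is the treated-group measurement divided by that of the vehicle-treated control group.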
# [1] = dose: 4.7 mg/kg/injection, schedule: Q04DX003 (ip), vehicle: water
# [2] = dose: 6.25 mg/kg/injection, schedule: Q01DX009 (ip), vehicle: water
# [3] = dose: 9.4 mg/kg/injection, schedule: Q04DX003 (ip), vehicle: water
# [4] = dose: 12.5 mg/kg/injection, schedule: Q01DX009 (ip), vehicle: water
# [5] = dose: 18.8 mg/kg/injection, schedule: Q04DX003 (ip), vehicle: water
# [6] = dose: 50.0 mg/kg/injection, schedule: Q01DX005 (ip), vehicle: saline with Tween-80
# [7] = dose: 100.0 mg/kg/injection, schedule: Q01DX005 (ip), vehicle: saline with Tween-80
# [8] = dose: 200.0 mg/kg/injection, schedule: Q01DX005 (ip), vehicle: saline with Tween-80
# [9] = dose: 50.0 mg/kg/injection, schedule: Q01DX005 (ip), vehicle: Klucel (hydroxypropylcellulose) (HPC)
# [10] = dose: 100.0 mg/kg/injection, schedule: Q01DX005 (ip), vehicle: Klucel (hydroxypropylcellulose) (HPC)
# [11] = dose: 200.0 mg/kg/injection, schedule: Q01DX005 (ip), vehicle: Klucel (hydroxypropylcellulose) (HPC)
# [12] = dose: 60.0 mg/kg/injection, schedule: Q01DX005 (ip), vehicle: saline with Tween-80
# [13] = dose: 120.0 mg/kg/injection, schedule: Q01DX005 (ip), vehicle: saline with Tween-80
# [14] = dose: 240.0 mg/kg/injection, schedule: Q01DX005 (ip), vehicle: saline with Tween-80
smiles,measurement,setting,value
COc1cccc2c1C(=O)c1c(O)c3c(c(O)c1C2=O)C[C@@](O)(C(C)=O)C[C@@H]3OC1CC(NC(C)C)C(O)C(C)O1 (stereo partly specified),T/C,"dose: 0.2 mg/kg/injection, schedule: Q01DX009 (ip), vehicle: water",97 % of control
same,T/C,"dose: 0.39 mg/kg/injection, schedule: Q01DX009 (ip), vehicle: water",103 % of control
same,T/C,"dose: 0.78 mg/kg/injection, schedule: Q01DX009 (ip), vehicle: water",115 % of control
same,T/C,[1],109 % of control
same,T/C,[2],157 % of control and 174 % of control
same,T/C,[3],107 % of control and 113 % of control
same,T/C,[4],199 % of control
same,T/C,[5],120 % of control
same,T/C,"dose: 150.0 mg/kg/injection, schedule: Q04DX003 (ip), vehicle: water",106 % of control and 91 % of control
[NH-]C(CO)C(=O)O.[NH-]C(CO)C(=O)O.[Pt+2] (stereo unspecified),T/C,"dose: 3.13 mg/kg/injection, schedule: Q01DX009 (ip), vehicle: water",91 % of control
same,T/C,[2],91 % of control
same,T/C,[4],97 % of control
same,T/C,"dose: 25.0 mg/kg/injection, schedule: Q01DX009 (ip), vehicle: water",106 % of control
same,T/C,"dose: 50.0 mg/kg/injection, schedule: Q01DX009 (ip), vehicle: water",115 % of control
same,T/C,"dose: 100.0 mg/kg/injection, schedule: Q01DX009 (ip), vehicle: water",115 % of control
COc1ccc2c(c1)nc(/C(C(=O)C(=O)c1ccccc1)=C(\O)c1ccccc1)c(C)[n+]2[O-],T/C,"dose: 60.0 mg/kg/injection, schedule: Q01DX005 (ip), vehicle: saline",103 % of control
same,T/C,"dose: 120.0 mg/kg/injection, schedule: Q01DX005 (ip), vehicle: saline",104 % of control
same,T/C,"dose: 240.0 mg/kg/injection, schedule: Q01DX005 (ip), vehicle: saline",100 % of control
NNC(=O)C(=O)NNC1CCCCC1,T/C,"dose: 100.0 mg/kg/injection, schedule: Q01DX009 (ip), vehicle: Klucel (hydroxypropylcellulose) (HPC)",101 % of control
same,T/C,"dose: 200.0 mg/kg/injection, schedule: Q01DX009 (ip), vehicle: Klucel (hydroxypropylcellulose) (HPC)",104 % of control
CCOc1cccc(/C=N/N=C2\C(=O)Nc3c(Cl)cc(Cl)cc32)c1O,T/C,[6],89 % of control
same,T/C,[7],92 % of control
same,T/C,[8],91 % of control
COC(=O)c1nc(-c2ccc3c(n2)C(=O)C(N)=C(OC)C3=O)c(N)c(-c2ccc(OC)c(OC)c2O)c1C,T/C,"dose: 1.5 mg/kg/injection, schedule: Q01DX009 (ip), vehicle: saline with Tween-80",100 % of control
same,T/C,"dose: 3.0 mg/kg/injection, schedule: Q01DX009 (ip), vehicle: saline with Tween-80",118 % of control
same,T/C,"dose: 6.0 mg/kg/injection, schedule: Q01DX009 (ip), vehicle: saline with Tween-80",122 % of control
same,T/C,"dose: 6.25 mg/kg/injection, schedule: Q01DX009 (ip), vehicle: saline with Tween-80",150 % of control
same,T/C,"dose: 66.0 mg/kg/injection, schedule: Q04DX003 (ip), vehicle: saline with Tween-80",109 % of control
Cc1ccc2nc(-c3ccc4nc(-c5ccc(N=Nc6ccc(-c7nc8ccc(-c9nc%10ccc(C)c(S(=O)(=O)O)c%10s9)cc8s7)cc6)cc5)sc4c3)sc2c1S(=O)(=O)O,T/C,"dose: 50.0 mg/kg/injection, schedule: Q01DX009 (ip), vehicle: saline",113 % of control and 116 % of control
same,T/C,"dose: 100.0 mg/kg/injection, schedule: Q01DX009 (ip), vehicle: saline",116 % of control and 121 % of control
same,T/C,"dose: 200.0 mg/kg/injection, schedule: Q01DX009 (ip), vehicle: saline",112 % of control and 123 % of control
Cc1nc2nc(O)c(Cc3ccccc3)c(=O)n2nc1C,T/C,[9],95 % of control
same,T/C,[10],93 % of control
same,T/C,[11],95 % of control
CCC/C=C/C1SCC(=O)N1c1nncs1 (stereo unspecified),T/C,[6],102 % of control
same,T/C,[7],103 % of control
same,T/C,[8],117 % of control
CCOC(=O)c1c(C)c2c(n1C)CCC(C(=O)OCC)C2=O (stereo unspecified),T/C,"dose: 50.0 mg/kg/injection, schedule: Q04DX003 (ip), vehicle: Klucel (hydroxypropylcellulose) (HPC)",107 % of control
same,T/C,"dose: 100.0 mg/kg/injection, schedule: Q04DX003 (ip), vehicle: Klucel (hydroxypropylcellulose) (HPC)",100 % of control
same,T/C,"dose: 200.0 mg/kg/injection, schedule: Q04DX003 (ip), vehicle: Klucel (hydroxypropylcellulose) (HPC)",91 % of control
CCN(CC)c1ccc2nc3c4ccccc4c(=O)cc-3n(-c3ccccc3)c2c1,T/C,"dose: 100.0 mg/kg/injection, schedule: Q01DX009 (ip), vehicle: saline with Tween-80",99 % of control
same,T/C,"dose: 200.0 mg/kg/injection, schedule: Q01DX009 (ip), vehicle: saline with Tween-80",101 % of control
same,T/C,"dose: 400.0 mg/kg/injection, schedule: Q01DX009 (ip), vehicle: saline with Tween-80",115 % of control
O=[N+]([O-])c1ccsc1SSc1sccc1[N+](=O)[O-],T/C,"dose: 25.0 mg/kg/injection, schedule: Q04DX003 (ip), vehicle: saline with Tween-80",102 % of control
same,T/C,"dose: 50.0 mg/kg/injection, schedule: Q04DX003 (ip), vehicle: saline with Tween-80",102 % of control
same,T/C,"dose: 100.0 mg/kg/injection, schedule: Q01DX001 (ip), vehicle: Klucel (hydroxypropylcellulose) (HPC)",102 % of control
same,T/C,"dose: 100.0 mg/kg/injection, schedule: Q04DX003 (ip), vehicle: saline with Tween-80",100 % of control
same,T/C,"dose: 200.0 mg/kg/injection, schedule: Q01DX001 (ip), vehicle: Klucel (hydroxypropylcellulose) (HPC)",102 % of control
same,T/C,"dose: 400.0 mg/kg/injection, schedule: Q01DX001 (ip), vehicle: Klucel (hydroxypropylcellulose) (HPC)",96 % of control
C=CCOc1cc2c(cc1C(CC)c1ccc(OC)cc1)OCO2 (stereo unspecified),T/C,[9],101 % of control
same,T/C,[10],103 % of control
same,T/C,[11],104 % of control
O=[N+]([O-])c1cccnc1-n1nnc2c([N+](=O)[O-])cccc21,T/C,[12],99 % of control
same,T/C,[13],100 % of control
same,T/C,[14],102 % of control
O=C(CNSc1ccc([N+](=O)[O-])cc1[N+](=O)[O-])OCc1ccccc1,T/C,"dose: 50.0 mg/kg/injection, schedule: Q01DX005 (ip), vehicle: saline + Tween-80 + alcohol",100 % of control
same,T/C,"dose: 100.0 mg/kg/injection, schedule: Q01DX005 (ip), vehicle: saline + Tween-80 + alcohol",106 % of control
same,T/C,"dose: 200.0 mg/kg/injection, schedule: Q01DX005 (ip), vehicle: saline + Tween-80 + alcohol",97 % of control
CC12CC3CN(C(=O)c4ccccc4)CCC3CC1=Nc1ccccc12 (stereo unspecified),T/C,"dose: 25.0 mg/kg/injection, schedule: Q04DX002 (ip), vehicle: saline with Tween-80",100 % of control
same,T/C,"dose: 50.0 mg/kg/injection, schedule: Q04DX002 (ip), vehicle: saline with Tween-80",103 % of control
same,T/C,"dose: 100.0 mg/kg/injection, schedule: Q04DX002 (ip), vehicle: saline with Tween-80",94 % of control
same,T/C,"dose: 200.0 mg/kg/injection, schedule: Q04DX002 (ip), vehicle: saline with Tween-80",86 % of control
COc1ccc(CC#N)cc1OC,T/C,"dose: 3.75 mg/kg/injection, schedule: Q01DX009 (ip), vehicle: saline with Tween-80",90 % of control
same,T/C,"dose: 7.5 mg/kg/injection, schedule: Q01DX009 (ip), vehicle: saline with Tween-80",90 % of control
same,T/C,"dose: 15.0 mg/kg/injection, schedule: Q01DX009 (ip), vehicle: saline with Tween-80",90 % of control
CCC1(CC2CCCN(C)C2)c2ccccc2Sc2ccccc21 (stereo unspecified),T/C,"dose: 12.5 mg/kg/injection, schedule: Q01DX005 (ip), vehicle: saline",98 % of control
same,T/C,"dose: 25.0 mg/kg/injection, schedule: Q01DX005 (ip), vehicle: saline",98 % of control
same,T/C,"dose: 50.0 mg/kg/injection, schedule: Q01DX005 (ip), vehicle: saline",91 % of control
CCCCCCCCCCNC1CC(OC2CC(O)(C(C)=O)Cc3c(O)c4c(c(O)c32)C(=O)c2c(OC)cccc2C4=O)OC(C)C1O (stereo unspecified),T/C,[1],101 % of control
same,T/C,[3],97 % of control
same,T/C,[5],106 % of control
same,T/C,"dose: 37.5 mg/kg/injection, schedule: Q04DX003 (ip), vehicle: water",92 % of control
CCOC(=O)C1=C(Nc2cccc3c(NC4=C(C(=O)OCC)C(=O)CO4)cccc23)OCC1=O,T/C,[12],109 % of control
same,T/C,[13],99 % of control
same,T/C,[14],98 % of control
O=[N+]([O-])c1ccc(N/N=C(\CI)c2ccccc2)c([N+](=O)[O-])c1,T/C,"dose: 75.0 mg/kg/injection, schedule: Q01DX001 (ip), vehicle: saline with Tween-80",105 % of control
same,T/C,"dose: 150.0 mg/kg/injection, schedule: Q01DX001 (ip), vehicle: saline with Tween-80",105 % of control
same,T/C,"dose: 300.0 mg/kg/injection, schedule: Q01DX001 (ip), vehicle: saline with Tween-80",120 % of control
O=C(Nc1ccccc1-c1ccccc1)c1cccc2ccccc12,T/C,[6],106 % of control
same,T/C,[7],94 % of control
same,T/C,[8],90 % of control
